Results from patent US11827616B2, “Heterocyclic compounds as pesticides” (Discovery Purchaser Corporation, priority 2018, dated 2023).
Read-outs that look alike come from different tables or passages of the source.

Legend:
Assay type in all cases: in vivo
Phaedon cochleariae = Phaedon cochleariae spray test; conditions: for pest or weed control at 500 g/ha: Phaedon cochleariae, 168 h, read-out: efficacy
Description: Phaedon cochleariae—Spray Test
(§1) Solvent: 78.0 parts by weight of acetone • • 1.5 parts by weight of dimethylformamide
(§2) Emulsifier: alkylaryl polyglycol ether
(§3) To produce a suitable active compound formulation, 1 part by weight of active compound is dissolved with the specified parts by weight of solvent and made up to the desired concentration with water containing an emulsifier concentration of 1000 ppm. To produce further test concentrations, the formulation is diluted with emulsifier-containing water.
Discs of Chinese cabbage leaves (Brassica pekinensis) are sprayed with an active compound formulation of the desired concentration and, after drying, populated with larvae of the mustard beetle (Phaedon cochleariae).
After 7 days, the efficacy in % is determined. 100% means that all the beetle larvae have been killed; 0% means that no beetle larvae have been killed.

Boophilus microplus = Boophilus microplus injection test; conditions: for pest or weed control at 0.02 mg: Rhipicephalus microplus, 168 h
Description: Boophilus microplus—Injection Test
(§4) Solvent: dimethyl sulfoxide
To produce a suitable active compound formulation, 10 mg of active compound are mixed with 0.5 ml of solvent and the concentrate is diluted to the desired concentration with solvent.
1 μl of the active compound solution is injected into the abdomen of 5 engorged adult female cattle ticks (Boophilus microplus). The animals are transferred into dishes and kept in a climate-controlled room.
Efficacy is assessed after 7 days by laying of fertile eggs. Eggs which are not visibly fertile are stored in a climate-controlled cabinet until the larvae hatch after about 42 days. An efficacy of 100% means that none of the ticks has laid any fertile eggs; 0% means that all the eggs are fertile.

Lucilia cuprina = Lucilia cuprina test; conditions: application rate 100 ppm; L1 larvae; after 2 days
Description: as §4
To produce a suitable active compound formulation, 10 mg of active compound are mixed with 0.5 ml of dimethyl sulfoxide, and the concentrate is diluted with water to the desired concentration.
About 20 L1 larvae of the Australian sheep blowfly (Lucilia cuprina) are transferred into a test vessel containing minced horsemeat and the active compound formulation of the desired concentration.
After 2 days, the kill in % is determined. 100% means that all the larvae have been killed; 0% means that no larvae have been killed.

Ctenocephalides felis = Ctenocephalides felis in vitro contact test with adult cat fleas; conditions: application rate 5 μg/cm^2 (=500 g/ha); after 48 h
Description: Ctenocephalides felis—In Vitro Contact Tests with Adult Cat Fleas
(§5) For the coating of the test tubes, 9 mg of active compound are first dissolved in 1 ml of acetone p.a. and then diluted to the desired concentration with acetone p.a. 250 μl of the solution are distributed homogeneously on the inner walls and the base of a 25 ml glass tube by turning and rocking on an orbital shaker (rocking rotation at 30 rpm for 2 h). With 900 ppm of active compound solution and internal surface area 44.7 cm^2, given homogeneous distribution, an area-based dose of 5 μg/cm^2 is achieved.
After the solvent has evaporated off, the tubes are populated with 5-10 adult cat fleas (Ctenocephalides felis), sealed with a perforated plastic lid and incubated in a horizontal position at room temperature and ambient humidity. After 48 h, efficacy is determined. To this end, the tubes are stood upright and the fleas are knocked to the base of the tube. Fleas which remain motionless at the base or move in an uncoordinated manner are considered to be dead or moribund.
100% efficacy means that all the fleas were dead or moribund. 0% efficacy means that no fleas were harmed.

Rhipicephalus sanguineus = Rhipicephalus sanguineus in vitro contact test with adult brown dog ticks; conditions: application rate 5 μg/cm^2 (=500 g/ha); after 48 h
Description: Rhipicephalus sanguineus—In Vitro Contact Tests with Adult Brown Dog Ticks
as §5
After the solvent has evaporated off, the tubes are populated with 5-10 adult dog ticks (Rhipicephalus sanguineus), sealed with a perforated plastic lid and incubated in a horizontal position in the dark at room temperature and ambient humidity. After 48 h, efficacy is determined. To this end, the ticks are knocked to the base of the tube and incubated on a hotplate at 45-50° C. for not more than 5 min. Ticks which remain motionless on the base or move in such an uncoordinated manner that they are unable to deliberately avoid the heat by climbing upwards are considered to be dead or moribund.
An efficacy of 100% means that all the ticks were dead or moribund. 0% efficacy means that none of the ticks were harmed.

Spodoptera frugiperda = Spodoptera frugiperda spray test; conditions: for pest or weed control at 500 g/ha: Spodoptera frugiperda, 168 h, read-out: efficacy
Description: Spodoptera frugiperda—Spray Test
as §1, §2, §3
Leaf discs of maize (Zea mays) are sprayed with an active compound formulation of the desired concentration and, after drying, populated with caterpillars of the fall armyworm (Spodoptera frugiperda).
After 7 days, the efficacy in % is determined. 100% means that all the caterpillars have been killed; 0% means that no caterpillar has been killed.

Tetranychus urticae = Tetranychus urticae spray test, OP-resistant; conditions: application rate 500 g/ha; after 6 days
Description: Tetranychus urticae—Spray Test, OP-Resistant
Solvent: 78.0 Parts by Weight of Acetone • • 1.5 parts by weight of dimethylformamide
as §2, §3
Discs of bean leaves (Phaseolus vulgaris) infested with all stages of the greenhouse red spider mite (Tetranychus urticae) are sprayed with an active compound formulation of the desired concentration.
After 6 days, the efficacy in % is determined. 100% means that all the spider mites have been killed; 0% means that no spider mites have been killed.

[1] = application rate 500 g/ha, after 7 days
[2] = application rate 20 μg/animal, after 7 days

`CC(C)N(CCOc1cnc(COc2ccc(Cl)c(OC(F)(F)F)c2)c(F)c1)C(C)C` [Example 79] showed an efficacy (Phaedon cochleariae; [1]) of 100%.

For `COc1cc(OCCN(C)OC)cnc1COc1ccc(Cl)c2ccccc12` [Example 91], the “efficacy (laying of fertile eggs)” value (Boophilus microplus; [2]) was 100%, the “efficacy (kill in %)” value (Lucilia cuprina) was 80% and the efficacy (Phaedon cochleariae; [1]) was 83%.

`CCN(CC)CCOc1ccc(COc2cccc3c(Cl)c(Cl)ccc23)cn1` [Example 9] was tested, and the “efficacy (fleas dead or moribund)” value (Ctenocephalides felis) was 100%, the “efficacy (ticks dead or moribund)” value (Rhipicephalus sanguineus) was 100% and the “efficacy (laying of fertile eggs)” value (Boophilus microplus; [2]) was 90%. It also gave an efficacy (Phaedon cochleariae; [1]) of 83% and an efficacy (Spodoptera frugiperda; [1]) of 100%.

With `CCN(CC)CCOc1ccc(COc2cccc3c(Cl)c(Cl)ccc23)nc1` [Example 33] the “efficacy (laying of fertile eggs)” value (Boophilus microplus; [2]) was 80%, the efficacy (Phaedon cochleariae; [1]) was 100% and the efficacy (Spodoptera frugiperda; [1]) was 100%.

`CN(CCOc1cnc(COc2ccc(F)c(-c3cccc(OC(F)(F)F)c3)c2)c(F)c1)C(C)(C)C` [Example 51] was tested, and the efficacy (Phaedon cochleariae; [1]) was 83%, the efficacy (Spodoptera frugiperda; [1]) was 100% and the efficacy (Tetranychus urticae) was 100%.

`CON(C)CCOc1ccc(COc2cccc3c(Cl)c(Cl)ccc23)nc1SC` [Example 52, 2-{[6-{[(5,6-dichloro-1-naphthyl)oxy]methyl}-2-(methylsulfanyl)pyridin-3-yl]oxy}-N-methoxy-N-methylethanamine] was tested, and the pest or weed control at 500 g/ha (Phaedon cochleariae; [1]) was 100% and the pest or weed control at 500 g/ha (Spodoptera frugiperda; [1]) was 100%.

Molecule `CON(C)CCOc1ncc(COc2ccc(Cl)c3ccccc23)cn1` [Example 98] has an efficacy (Phaedon cochleariae; [1]) of 100%.

In the case of `CN(CCOc1cnc(COc2cccc3c(Cl)c(Cl)ccc23)c(F)c1)C(C)(C)C` [Example 37, N-{2-[(6-{[(5,6-dichloro-1-naphthyl)oxy]methyl}-5-fluoropyridin-3-yl)oxy]ethyl}-N,2-dimethylpropan-2-aminium chloride], the “efficacy (fleas dead or moribund)” value (Ctenocephalides felis) is reported as 100%, the “efficacy (laying of fertile eggs)” value (Boophilus microplus; [2]) is reported as 80% and the efficacy (Phaedon cochleariae; [1]) is reported as 100%. It also gave an efficacy (Spodoptera frugiperda; [1]) of 100%.

For `CON(C)CCOc1ccc(COc2cccc3c(Cl)c(Cl)ccc23)nc1Cl` [Example 18], the “efficacy (laying of fertile eggs)” value (Boophilus microplus; [2]) was 100% and the efficacy (Spodoptera frugiperda; [1]) was 100%.

Work on `CCN1CCN(c2cnc(COc3cccc4c(Cl)c(Cl)ccc34)c(F)c2)CC1` [Example 45] yielded an efficacy (Phaedon cochleariae; [1]) of 100% and an efficacy (Spodoptera frugiperda; [1]) of 100%.

`CON(C)CCOc1ccc(COc2ccc3oc4ccccc4c3c2)cn1` [Example 8] showed an efficacy (Phaedon cochleariae; [1]) of 100% and an efficacy (Spodoptera frugiperda; [1]) of 100%.

Work on `CN(CCOc1cnc(COc2ccc3oc4ccccc4c3c2)c(F)c1)C(C)(C)C.Cl` [Example 35] yielded an efficacy (Phaedon cochleariae; [1]) of 83%.

With `CON(C)CCOc1cnc(COc2ccc(F)c(Br)c2)c(F)c1` [Example 83] the “efficacy (laying of fertile eggs)” value (Boophilus microplus; [2]) was 80% and the efficacy (Tetranychus urticae) was 100%.

For `CN(CCOc1cnc(COc2cccc3c(Cl)c(Cl)ccc23)c(F)c1)C(C)(C)C` [Example 36, N-{2-[(6-{[(5,6-dichloro-1-naphthyl)oxy]methyl}-5-fluoropyridin-3-yl)oxy]ethyl}-N,2-dimethylpropan-2-amine], the pest or weed control at 0.02 mg (Boophilus microplus; read-out: efficacy (laying of fertile eggs), application rate 20 μg/animal, after 7 days) was 100%, the pest or weed control at 500 g/ha (Phaedon cochleariae) was 100% and the pest or weed control at 500 g/ha (Spodoptera frugiperda) was 100%.

For `CCN(CC)CCOc1cnc(COc2cccc3c(Cl)c(Cl)ccc23)c(F)c1` [Example 32, 2-[(6-{[(5,6-dichloro-1-naphthyl)oxy]methyl}-5-fluoropyridin-3-yl)oxy]-N,N-diethylethanamine], the “efficacy (fleas dead or moribund)” value (Ctenocephalides felis) was 100%, the pest or weed control at 0.02 mg (Boophilus microplus; application rate 20 μg/animal, after 7 days, read-out: efficacy (laying of fertile eggs)) was 100% and the pest or weed control at 500 g/ha (Spodoptera frugiperda; [1]) was 100%. For the same molecule, the efficacy (Tetranychus urticae) was 90%.

In the case of `CON(C)CCOc1cnc(COc2cccc(-c3cccc(Cl)c3)c2)c(F)c1` [Example 80], the “efficacy (ticks dead or moribund)” value (Rhipicephalus sanguineus) is reported as 100%, the “efficacy (laying of fertile eggs)” value (Boophilus microplus; [2]) is reported as 100% and the “efficacy (kill in %)” value (Lucilia cuprina) is reported as 100%. The efficacy (Phaedon cochleariae; [1]) was 100% and the efficacy (Spodoptera frugiperda; [1]) was 83%.

For `CN(CC#N)CCOc1cnc(COc2cccc3c(Cl)c(Cl)ccc23)c(F)c1` [Example 28], the “efficacy (ticks dead or moribund)” value (Rhipicephalus sanguineus) was 100%, the “efficacy (laying of fertile eggs)” value (Boophilus microplus; [2]) was 100% and the “efficacy (kill in %)” value (Lucilia cuprina) was 100%.

In the case of `CON(C)CCOc1ccc(COc2ccc(Cl)c(OC(F)(F)F)c2)nc1` [Example 73], the “efficacy (laying of fertile eggs)” value (Boophilus microplus; [2]) is reported as 80% and the efficacy (Tetranychus urticae) is reported as 100%.

For `CON(C)CCOc1cnc(COc2ccc(Cl)c3ccccc23)c(Cl)c1` [Example 25], the “efficacy (laying of fertile eggs)” value (Boophilus microplus; [2]) was 100% and the efficacy (Spodoptera frugiperda; [1]) was 100%.

For `CC(C)N(CCOc1cnc(COc2ccc3oc4ccccc4c3c2)c(F)c1)C(C)C` [Example 40], the efficacy (Phaedon cochleariae; [1]) was 100%.

In the case of `Fc1cc(OCCN2CCCCC2)cnc1COc1cccc2c(Cl)c(Cl)ccc12` [Example 42], the efficacy (Spodoptera frugiperda; [1]) is reported as 100%.

With `CON(C)CCOc1cnc(COc2cccc3c(F)cccc23)c(F)c1` [Example 24] the “efficacy (fleas dead or moribund)” value (Ctenocephalides felis) was 100%, the “efficacy (ticks dead or moribund)” value (Rhipicephalus sanguineus) was 100% and the “efficacy (laying of fertile eggs)” value (Boophilus microplus; [2]) was 100%. The efficacy (Spodoptera frugiperda; [1]) was 83%.

`CON(C)CCOc1ncc(COc2ccc(Cl)c3ccccc23)cc1Cl` [Example 7] was tested, and the efficacy (Tetranychus urticae) was 100%.

Molecule `CC(C)N(C)CCOc1cnc(COc2ccc3oc4ccccc4c3c2)c(F)c1` [Example 43] has an efficacy (Phaedon cochleariae; [1]) of 100%.

With `CN(CCOc1cnc(COc2ccc(F)c(-c3cccc(OC(F)(F)F)c3)c2)c(F)c1)C(C)(C)C.Cl` [Example 77] the “efficacy (kill in %)” value (Lucilia cuprina) was 90%, the efficacy (Phaedon cochleariae; [1]) was 83% and the efficacy (Spodoptera frugiperda; [1]) was 100%.

For `CC(C)(C)NCCOc1cnc(COc2cccc3c(Cl)c(Cl)ccc23)c(F)c1` [Example 38], the “efficacy (laying of fertile eggs)” value (Boophilus microplus; [2]) was 100%, the “efficacy (kill in %)” value (Lucilia cuprina) was 80% and the efficacy (Phaedon cochleariae; [1]) was 100%. The efficacy (Spodoptera frugiperda; [1]) was 100%.

`CCN1CCN(c2cnc(COc3ccc4oc5ccccc5c4c3)c(F)c2)CC1` [Example 46] gave an efficacy (Spodoptera frugiperda; [1]) of 83%.

For `COc1cc(OCCN(C)OC)cnc1COc1cccc(-c2ccccc2)c1` [Example 94], the “efficacy (laying of fertile eggs)” value (Boophilus microplus; [2]) was 80%.

With `CN(CCOc1cnc(COc2cccc(-c3cccc(OC(F)(F)F)c3)c2)c(F)c1)C(C)(C)C` [Example 66] the efficacy (Phaedon cochleariae; [1]) was 100% and the efficacy (Spodoptera frugiperda; [1]) was 100%.

With `CON(C)CCOc1ccc(COc2ccc3oc4ccccc4c3c2)nc1` [Example 31] the “efficacy (ticks dead or moribund)” value (Rhipicephalus sanguineus) was 100%, the “efficacy (laying of fertile eggs)” value (Boophilus microplus; [2]) was 100% and the “efficacy (kill in %)” value (Lucilia cuprina) was 100%. For the same molecule, the efficacy (Phaedon cochleariae; [1]) was 100% and the efficacy (Spodoptera frugiperda; [1]) was 100%.

`Fc1cc(OCCN2CCCCC2)cnc1COc1ccc2oc3ccccc3c2c1` [Example 41] was tested, and the efficacy (Tetranychus urticae) was 90%.

With `CN(CCOc1cnc(COc2ccc3oc4ccccc4c3c2)c(F)c1)C(C)(C)C` [Example 34] the “efficacy (laying of fertile eggs)” value (Boophilus microplus; [2]) was 80%, the efficacy (Phaedon cochleariae; [1]) was 100% and the efficacy (Spodoptera frugiperda; [1]) was 100%. It also gave an efficacy (Tetranychus urticae) of 90%.

With `CON(C)CCOc1cnc(COc2cccc(-c3cccc(F)c3)c2)c(F)c1` [Example 85] the efficacy (Spodoptera frugiperda; [1]) was 83%.

With `COc1cc(OCCN(C)OC)cnc1COc1cccc2c(Cl)c(Cl)ccc12` [Example 93] the “efficacy (laying of fertile eggs)” value (Boophilus microplus; [2]) was 100% and the “efficacy (kill in %)” value (Lucilia cuprina) was 100%.
